Values after ≈ are worked out from the molar mass of the structure shown. Where two headings read alike, the source gives them in different places.
Legend:
A. baumannii ATCC 17978 = experiment: microbe, parasite or virus in culture; format: cell-based; conditions: Acinetobacter baumannii, ATCC17978, read-out: MIC, A. baumannii ATCC 17978
[1] = test system: P. aeruginosa (ΔmexAB-oprM); experiment: Broth microdilution MIC in iron-depleted CAMHB (IDM); format: cell-based; conditions: Pseudomonas aeruginosa; iron-depleted CAMHB (IDM); […]; read-out: Minimum inhibitory concentration, P. aeruginosa ΔmexAB-oprM
N. gonorrhoeae WHO Z = experiment: Liquid broth MIC in Fastidious broth; conditions: Neisseria gonorrhoeae
[2] = target: T1, PBP1a from Acinetobacter baumannii (ATCC 19606) (Acinetobacter baumannii, UniProt A0ABX6CK30); experiment: Bocillin-FL fluorescence polarization competition binding, A. baumannii PBP1a; conditions: fluorescence polarization competition binding assay using Bocillin-FL; read-out: A. baumannii PBP1a Potency
T1 sequence (A0ABX6CK30 1-851): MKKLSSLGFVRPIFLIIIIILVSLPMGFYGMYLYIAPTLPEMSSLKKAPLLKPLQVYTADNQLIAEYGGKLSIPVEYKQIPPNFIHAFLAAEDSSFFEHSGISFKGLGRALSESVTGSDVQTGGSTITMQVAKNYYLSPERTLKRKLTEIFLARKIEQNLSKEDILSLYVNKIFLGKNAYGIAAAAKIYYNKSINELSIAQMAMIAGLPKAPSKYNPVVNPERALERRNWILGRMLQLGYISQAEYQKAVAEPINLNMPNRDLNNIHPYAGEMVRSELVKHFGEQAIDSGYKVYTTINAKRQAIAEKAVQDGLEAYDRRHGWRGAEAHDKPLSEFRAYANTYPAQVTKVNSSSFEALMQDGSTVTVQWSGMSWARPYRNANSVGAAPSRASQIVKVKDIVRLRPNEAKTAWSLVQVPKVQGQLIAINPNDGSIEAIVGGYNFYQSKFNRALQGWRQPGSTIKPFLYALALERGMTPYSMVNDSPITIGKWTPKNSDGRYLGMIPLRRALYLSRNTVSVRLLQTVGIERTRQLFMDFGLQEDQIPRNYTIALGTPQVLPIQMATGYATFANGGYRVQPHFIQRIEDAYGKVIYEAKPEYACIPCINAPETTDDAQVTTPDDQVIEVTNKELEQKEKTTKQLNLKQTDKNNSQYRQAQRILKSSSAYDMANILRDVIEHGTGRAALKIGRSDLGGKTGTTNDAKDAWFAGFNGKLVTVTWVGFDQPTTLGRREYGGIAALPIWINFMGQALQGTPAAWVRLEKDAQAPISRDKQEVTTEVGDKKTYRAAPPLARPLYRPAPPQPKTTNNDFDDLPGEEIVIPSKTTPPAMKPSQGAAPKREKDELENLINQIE
Procedure, shortened: (§1)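 Purified PBP was preincubated with inhibitor (E. coli PBP3 1.5 μM, 30 min; P. aeruginosa PBP3 0.75 μM, A. baumannii PBP3 0.2 μM and PBP1a 1 μM, 15 min), then Bocillin-FL (0.1 μM; 0.05 μM for PBP1a) added and FP read up to 60 min. EC50 = 50% loss of bound probe.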

A. baumannii ATCC 19606 = experiment: microbe, parasite or virus in culture; format: cell-based; conditions: Acinetobacter baumannii, ATCC19606, read-out: MIC, A. baumannii ATCC 19606
N. gonorrhoeae WHO K = experiment: Liquid broth MIC in Fastidious broth; conditions: Neisseria gonorrhoeae
[3] = target: T2, PBP3 from Escherichia coli (K-12) (Escherichia coli, UniProt P0AD68); experiment: Bocillin-FL fluorescence polarization competition binding, E. coli PBP3
T2 construct: made in house
Procedure, shortened: as §1

A. baumannii CDC-0033 = experiment: microbe, parasite or virus in culture; format: cell-based; conditions: Acinetobacter baumannii, CDC0033, read-out: MIC, A. baumannii CDC-0033
[4] = read-out: Minimum Inhibitory Concentration (MIC), N. gonorrhoeae WHO Z
[5] = read-out: Minimum Inhibitory Concentration (MIC), N. gonorrhoeae WHO K
[6] = read-out: Minimum Inhibitory Concentration, WHO Z
[7] = read-out: Minimum Inhibitory Concentration, WHO K

T2 sequence (P0AD68 1-577): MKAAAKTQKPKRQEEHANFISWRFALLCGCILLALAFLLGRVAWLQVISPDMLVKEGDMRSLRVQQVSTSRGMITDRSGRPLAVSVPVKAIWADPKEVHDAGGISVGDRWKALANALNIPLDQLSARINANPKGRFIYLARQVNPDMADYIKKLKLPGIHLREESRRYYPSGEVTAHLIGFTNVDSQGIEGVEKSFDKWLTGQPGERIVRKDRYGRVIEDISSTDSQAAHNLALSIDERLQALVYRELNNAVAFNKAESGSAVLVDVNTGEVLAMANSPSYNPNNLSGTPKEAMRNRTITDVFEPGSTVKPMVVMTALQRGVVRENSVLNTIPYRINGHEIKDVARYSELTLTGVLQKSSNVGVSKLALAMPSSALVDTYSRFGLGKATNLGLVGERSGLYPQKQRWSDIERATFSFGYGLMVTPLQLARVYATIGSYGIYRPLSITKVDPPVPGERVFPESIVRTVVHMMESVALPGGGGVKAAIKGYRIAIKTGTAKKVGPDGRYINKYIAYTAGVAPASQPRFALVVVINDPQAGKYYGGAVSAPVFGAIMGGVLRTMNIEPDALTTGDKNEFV

Row | SMILES | MIC (A. baumannii ATCC 17978) [µg/mL] | MIC [1] [µg/mL] | MIC (N. gonorrhoeae WHO Z; [4]) [µg/mL] | IC50 [2] [µM] | MIC (A. baumannii ATCC 19606) [µg/mL] | MIC (N. gonorrhoeae WHO K; [5]) [µg/mL] | EC50 [3] [µM] | MIC (A. baumannii CDC-0033) [µg/mL] | MIC (N. gonorrhoeae WHO Z; [6]) [µg/mL] | MIC (N. gonorrhoeae WHO K; [7]) [µg/mL]
1 | O=C(CN1CCN(C(=O)N[C@@H](C(=O)N[C@H]2Cc3ccc(F)c(C(=O)O)c3OB2O)c2cc(F)c(O)c(O)c2Cl)C(=O)C1=O)NCc1ccncc1 [Example 239, (R)-3-((R)-2-(2-chloro-5-fluoro-3,4-dihydroxyphenyl)-2-(2,3-dioxo-4-(2-oxo-2-((pyridin-4-ylmethyl)amino)ethyl)piperazine-1-carboxamido)acetamido)-7-fluoro-2-hydroxy-3,4-dihydro-2H-benzo[e][1,2]oxaborinine-8-carboxylic acid] | < 1 | < 1 | 16 to 32 (≈ 21.9 to 43.8 µM) | > 250 | < 1 | > 64 | < 10 | 8 to 16 (≈ 10.9 to 21.9 µM) |  | 
2 | O=C(CN1CCN(C(=O)NC(C(=O)N[C@H]2Cc3ccc(F)c(C(=O)O)c3OB2O)c2cc(F)c(O)c(O)c2Cl)C(=O)C1=O)NCc1cccnc1 (stereo partly drawn) [Example 240, (3R)-3-(2-(2-chloro-5-fluoro-3,4-dihydroxyphenyl)-2-(2,3-dioxo-4-(2-oxo-2-((pyridin-3-ylmethyl)amino)ethyl)piperazine-1-carboxamido)acetamido)-7-fluoro-2-hydroxy-3,4-dihydro-2H-benzo[e][1,2]oxaborinine-8-carboxylic acid] | < 1 | < 1 | 16 to 32 (≈ 21.9 to 43.8 µM) | > 250 | < 1 | > 64 | < 10 | 2 to 4 (≈ 2.74 to 5.47 µM) |  | 
3 | O=C(CN1CCN(C(=O)N[C@@H](C(=O)N[C@H]2Cc3ccc(F)c(C(=O)O)c3OB2O)c2cc(F)c(O)c(O)c2Cl)C(=O)C1=O)NCc1nccs1 [Example 241, (R)-3-((R)-2-(2-chloro-5-fluoro-3,4-dihydroxyphenyl)-2-(2,3-dioxo-4-(2-oxo-2-((thiazol-2-ylmethyl)amino)ethyl)piperazine-1-carboxamido)acetamido)-7-fluoro-2-hydroxy-3,4-dihydro-2H-benzo[e][1,2]oxaborinine-8-carboxylic acid] | < 1 | < 1 | 16 to 32 (≈ 21.7 to 43.4 µM) | > 250 | < 1 | 16 to 32 (≈ 21.7 to 43.4 µM) | < 10 | 8 to 16 (≈ 10.9 to 21.7 µM) |  | 
4 | O=C(NCCN1CCN(C(=O)NC(C(=O)N[C@H]2Cc3ccc(F)c(C(=O)O)c3OB2O)c2cc(F)c(O)c(O)c2Cl)C1=O)c1ccccc1 (stereo partly drawn) [Example 242, (3R)-3-(2-(3-(2-benzamidoethyl)-2-oxoimidazolidine-1-carboxamido)-2-(2-chloro-5-fluoro-3,4-dihydroxyphenyl)acetamido)-7-fluoro-2-hydroxy-3,4-dihydro-2H-benzo[e][1,2]oxaborinine-8-carboxylic acid] | < 1 | < 1 | 16 to 32 (≈ 22.8 to 45.6 µM) | > 250 | < 1 | > 64 | < 10 | 2 to 4 (≈ 2.85 to 5.7 µM) |  | 
5 | O=C(NCCN1CCN(C(=O)NC(C(=O)N[C@H]2Cc3ccc(F)c(C(=O)O)c3OB2O)c2cc(F)c(O)c(O)c2Cl)C1=O)c1ccc(O)cc1 (stereo partly drawn) [Example 243, (3R)-3-(2-(2-chloro-5-fluoro-3,4-dihydroxyphenyl)-2-(3-(2-(4-hydroxybenzamido)ethyl)-2-oxoimidazolidine-1-carboxamido)acetamido)-7-fluoro-2-hydroxy-3,4-dihydro-2H-benzo[e][1,2]oxaborinine-8-carboxylic acid] | < 1 | < 1 | 16 to 32 (≈ 22.3 to 44.6 µM) | > 250 | < 1 | > 64 | 10 to 50 | 2 to 4 (≈ 2.79 to 5.57 µM) |  | 
6 | O=C(NCCN1CCN(C(=O)NC(C(=O)N[C@H]2Cc3ccc(F)c(C(=O)O)c3OB2O)c2cc(F)c(O)c(O)c2Cl)C1=O)c1cccc(O)c1 (stereo partly drawn) [Example 244, (3R)-3-(2-(2-chloro-5-fluoro-3,4-dihydroxyphenyl)-2-(3-(2-(3-hydroxybenzamido)ethyl)-2-oxoimidazolidine-1-carboxamido)acetamido)-7-fluoro-2-hydroxy-3,4-dihydro-2H-benzo[e][1,2]oxaborinine-8-carboxylic acid] | < 1 | < 1 | > 64 | > 250 | < 1 | > 64 | 10 to 50 | 2 to 4 (≈ 2.79 to 5.57 µM) |  | 
7 | O=C(NCCN1CCN(C(=O)NC(C(=O)N[C@H]2Cc3ccc(F)c(C(=O)O)c3OB2O)c2cc(F)c(O)c(O)c2Cl)C1=O)c1ccncc1 (stereo partly drawn) [Example 245, (3R)-3-(2-(2-chloro-5-fluoro-3,4-dihydroxyphenyl)-2-(3-(2-(isonicotinamido)ethyl)-2-oxoimidazolidine-1-carboxamido)acetamido)-7-fluoro-2-hydroxy-3,4-dihydro-2H-benzo[e][1,2]oxaborinine-8-carboxylic acid] | < 1 | < 1 | > 64 | > 250 | < 1 | > 64 | 10 to 50 | 8 to 16 (≈ 11.4 to 22.8 µM) |  | 
8 | O=C(NCCN1CCN(C(=O)NC(C(=O)N[C@H]2Cc3ccc(F)c(C(=O)O)c3OB2O)c2cc(F)c(O)c(O)c2Cl)C1=O)c1cccnc1 (stereo partly drawn) [Example 246, (3R)-3-(2-(2-chloro-5-fluoro-3,4-dihydroxyphenyl)-2-(3-(2-(nicotinamido)ethyl)-2-oxoimidazolidine-1-carboxamido)acetamido)-7-fluoro-2-hydroxy-3,4-dihydro-2H-benzo[e][1,2]oxaborinine-8-carboxylic acid] | < 1 | < 1 |  | > 250 | < 1 |  | 10 to 50 | 2 to 4 (≈ 2.85 to 5.69 µM) | 16 to 32 (≈ 22.8 to 45.5 µM) | > 64
9 | O=C(NCCN1CCN(C(=O)NC(C(=O)N[C@H]2Cc3ccc(F)c(C(=O)O)c3OB2O)c2cc(F)c(O)c(O)c2Cl)C1=O)c1nccs1 (stereo partly drawn) [Example 247, (3R)-3-(2-(2-chloro-5-fluoro-3,4-dihydroxyphenyl)-2-(2-oxo-3-(2-(thiazole-2-carboxamido)ethyl)imidazolidine-1-carboxamido)acetamido)-7-fluoro-2-hydroxy-3,4-dihydro-2H-benzo[e][1,2]oxaborinine-8-carboxylic acid] | < 1 | < 1 |  | > 250 | < 1 |  | 10 to 50 | 2 to 4 (≈ 2.82 to 5.64 µM) | 16 to 32 (≈ 22.6 to 45.1 µM) | > 64
10 | O=C(O)c1c(F)ccc2c1OB(O)[C@@H](NC(=O)C(NC(=O)N1CCN(CCNC(=O)[C@@H]3CCCN3)C1=O)c1cc(F)c(O)c(O)c1Cl)C2 (stereo partly drawn) [Example 248, (3R)-3-(2-(2-chloro-5-fluoro-3,4-dihydroxyphenyl)-2-(2-oxo-3-(2-((S)-pyrrolidine-2-carboxamido)ethyl)imidazolidine-1-carboxamido)acetamido)-7-fluoro-2-hydroxy-3,4-dihydro-2H-benzo[e][1,2]oxaborinine-8-carboxylic acid] | < 1 | < 1 |  | > 250 | < 1 |  | 10 to 50 | 2 to 4 (≈ 2.88 to 5.76 µM) | 16 to 32 (≈ 23 to 46.1 µM) | 16 to 32 (≈ 23 to 46.1 µM)
11 | O=C(NCCN1CCN(C(=O)NC(C(=O)N[C@H]2Cc3ccc(F)c(C(=O)O)c3OB2O)c2cc(F)c(O)c(O)c2Cl)C1=O)Nc1ccncc1 (stereo partly drawn) [Example 250, (3R)-3-(2-(2-chloro-5-fluoro-3,4-dihydroxyphenyl)-2-(2-oxo-3-(2-(3-(pyridin-4-yl)ureido)ethyl)imidazolidine-1-carboxamido)acetamido)-7-fluoro-2-hydroxy-3,4-dihydro-2H-benzo[e][1,2]oxaborinine-8-carboxylic acid] | < 1 | < 1 |  | > 250 | < 1 |  | < 10 | 2 to 4 (≈ 2.79 to 5.57 µM) | > 64 | > 64

Source: patent US20240270762A1, “PENICILLIN-BINDING PROTEIN INHIBITORS” (priority 2021, published 2024)
